Experimental data: article PMC6259458, “Investigating the Spectrum of Biological Activity of Ring-Substituted Salicylanilides and Carbamoylphenylcarbamates” (Molecules, 2010)
≈ marks a conversion by molar mass, not a printed value. Where “and” joins values, the source holds several entries; their conditions need not be identical. Equal values may be shown once. Read-outs that look alike come from different tables or passages of the source.

Assays:
Absidia corymbifera 272 = experiment: In vitro anti-fungal susceptibility, broth microdilution; type: cell-based
Description: (§1) The broth microdilution test was used for the assessment of in vitro anti-fungal activity of the synthesized compounds against Absidia corymbifera 272 (AC) and Trichophyton mentagrophytes 445 (TM). Fluconazole (FLU) was used as the standard since it is a clinically used anti-mycotic drug. The procedure was performed with a two-fold dilution of the compounds in […]., Prague, Czech Republic) buffered to pH 7.0 with 0.165 mol of 3-morpholino-propane-1-sulfonic acid (MOPS, Sigma, Germany). […] Drug-free controls were included. […] The values of the minimum inhibitory concentration (MICs) were determined after 24 and 48 h of static incubation at 35 °C. For T. mentagrophytes, the final MICs were determined after 72 and 120 h of incubation.

[1] = test system: Trichophyton mentagrophytes 445; experiment: as above; type: cell-based; conditions: MIC = IC50 value, NA = no significant activity
Description: as §1

[2] = test system: Staphylococcus epidermidis H 6966/08; experiment: In vitro anti-bacterial susceptibility, Mueller-Hinton broth; type: cell-based; conditions: MIC = IC90 value, NA = no significant activity
[3] = design: method as in PMID 1151976; conditions: parameter of the substituents in the anilide part; cited from earlier work
[4] = test system: photosynthetic electron transport (PET) in spinach chloroplasts; experiment: Inhibition of photosynthetic electron transport (PET) in spinach chloroplasts, DCPIP photoreduction; type: biochemical, Spinacia oleracea L.; conditions: DCPIP photoreduction, pH 7.2
Description: Chloroplasts were prepared from spinach (Spinacia oleracea L.) according to Masarovicova and Kralova. The inhibition of photosynthetic electron transport (PET) in spinach chloroplasts was determined spectrophotometrically (Genesys 6, Thermo Scientific, USA), using an artificial electron acceptor 2,6-dichlorophenol-indophenol (DCIPP) according to Kralova et al., and the rate of photosynthetic electron transport was monitored as a photoreduction of DCPIP. The measurements were carried out in phosphate buffer (0.02 mol/L, pH 7.2) containing sucrose (0.4 mol/L), MgCl2 (0.005 mol/L) and NaCl (0.015 mol/L). The chlorophyll content was 30 mg/L in these experiments and the samples were irradiated (~100 W/m^2) from 10 cm distance with a halogen lamp (250 W) using a 4 cm water filter to prevent warming of the samples (suspension temperature 22 °C). The studied compounds were dissolved in DMSO due to their limited water solubility.

[5] = test system: photosynthetic apparatus of spinach chloroplasts (PS 2 / PS 1); experiment: Site of action: restoration of PET by artificial electron donors (DPC, DCPIPH2); type: biochemical, Spinacia oleracea L.
Description: To further determine the site of action of the studied compounds, experiments with 1,5-diphenylcarbazide (DPC) were performed. DPC is an artificial electron donor for PS 2 with a known site of action in the Z^•/D^• intermediate. The site of action of the artificial electron acceptor 2,6-dichlorophenol-indophenol (DCPIP) used for monitoring the Hill reaction is plastoquinone on the acceptor side of PS 2 [51]. Thus, if the part of the photosynthetic electron transport chain between manganese cluster and Z/D is inhibited, then DPC will restore PET through PS 2.

[6] = test system: methicilin resistant Staphylococcus aureus H 5996/08; experiment: In vitro anti-bacterial susceptibility, Mueller-Hinton broth; type: cell-based; conditions: MRSA, methicillin-resistant Staphylococcus aureus, MIC = IC90 value, NA = no significant activity
[7] = Lipophilicity determination by RP-HPLC (capacity factor k / log k); type: physicochemical; conditions: C18 column, MeOH 70% / H2O 30%, isocratic
Description: Hydrophobicities (log P/Clog P) of the compounds 1-5 and 8-14 were calculated using two commercially available programs (ChemDraw Ultra 10.0 and ACD/LogP) and also measured by means of the RP-HPLC determination of capacity factors k with subsequent calculation of log k. The procedure was performed under isocratic conditions with methanol as an organic modifier in the mobile phase using an end-capped non-polar C18 stationary RP column. The results are shown in Table 1 and illustrated in Figure 1.
A Waters Alliance 2695 XE HPLC separation module and a Waters Photodiode Array Detector 2996 (Waters Corp., Milford, MA, USA) were used. A Symmetry® C18 5 μm, 4.6 × 250 mm, Part No. WAT054275 (Waters Corp., Milford, MA, USA) chromatographic column was used. The HPLC separation process was monitored by Empower™ 2 Chromatography Data Software, Waters 2009 (Waters Corp., Milford, MA, USA). A mixture of MeOH p.a. (70%) and H2O-HPLC – Mili-Q Grade (30%) was used as a mobile phase. The total flow of the column was 1.0 mL/min, injection volume 30 μL, column temperature 30 °C and sample temperature 10°C. The detection wavelength of 210 nm was chosen. The KI methanolic solution was used for the dead time (tD) determination. Retention times (tR) were measured in minutes. The capacity factors k were calculated using the Empower™ 2 Chromatography Data Software according to formula k = (tR - tD)/tD, where tR is the retention time of the solute, whereas tD denotes the dead time obtained using an unretained analyte. Log k, calculated from the capacity factor k, is used as the lipophilicity index converted to log P scale.

[8] = test system: photosynthetic apparatus of spinach chloroplasts; experiment: EPR spectra of treated spinach chloroplasts; type: biochemical, Spinacia oleracea L.; conditions: 0.05 M of compound, under irradiation, versus untreated chloroplasts
Description: Experiments were then performed to determine the site of action of the studied compounds in the photosynthetic apparatus. In Figure 2, EPR spectra of untreated chloroplasts and those treated with the very effective PET inhibitor, compound 3 (Table 2), are presented. The EPR spectrum of untreated chloroplasts recorded in the dark consists of the typical signal IIslow (g = 2.0046, ΔBpp= 2 mT, see Figure 2A - full line). An increase of EPR signal intensity in the light represents signal IIvery fast (g = 2.0046, ΔBpp= 2 mT; in Figure 2A it is the difference between dotted and full lines). These EPR signals belong to the intermediates D^• and Z^• respectively, which are tyrosine radicals situated in the 161st positions in D2 (for D) and D1 (for Z) proteins at the donor side of PS 2 [48, 49]. […]
EPR spectra were registered by the equipment ERS 230 (ZWG, Acad. Sci., Berlin, Germany), which operates in X-band (~9.3 GHz), with modulation amplitude 0.5 mT and microwave power 5 mW at room temperature. The samples containing chlorophyll (3.2 g/L) were measured in a flat quartz cell and their irradiation (~400 μE/m^2s PAR) was carried out directly in the resonance cavity with a 250 W halogen lamp from 0.5 m distance through 5 cm water filter.

M. kansasii CIT11/06 = experiment: In vitro anti-mycobacterial evaluation, alamarBlue; conditions: 5 days, NA = no significant activity
Description: (§2) Clinical isolates of Mycobacterium avium complex CIT19/06 (MAC), M. avium paratuberculosis ATCC19698 (MAP), and M. kansasii CIT11/06 (MK) were grown in Middlebrook broth (MB), supplemented with Oleic, Albumin, Dextrose, Catalase supplement (OADC, Becton Dickinson, UK). […] At log phase growth, culture (10 mL) was centrifuged at 15,000 rpm/20 min using a bench top centrifuge (Model CR 4-12 Jouan Inc., UK). Following removal of the supernatant, the pellet was washed in fresh Middlebrook 7H9GC broth and re-suspended in fresh supplemented MB (10 mL). The turbidity was adjusted to match McFarland standard No. 1 (3 × 10^8 cfu) with MB broth. A further 1:20 dilution of the culture was then performed in MB broth.
(§3) The anti-microbial susceptibility of all three mycobacterial species was investigated in a 96-well plate format. […] Each evaluated compound (100 µL) was incubated with each of the mycobacterial species (100 µL). […] Following incubation, a 10% addition of alamarBlue (AbD Serotec) was mixed into each well and readings at 570 nm and 600 nm were taken, initially for background subtraction and subsequently after 24 h re-incubation. […] For non-interfering compounds, a blue colour in the well was interpreted as an absence of growth and a pink colour was scored as growth. […]

[9] = test system: M. avium paratuberculosis ATCC19698; experiment: In vitro anti-mycobacterial evaluation, alamarBlue; type: cell-based; conditions: 7 days, NA = no significant activity
[10] = test system: Mycobacterium avium complex CIT19/06; experiment: In vitro anti-mycobacterial evaluation, alamarBlue; conditions: 5 days, NA = no significant activity
Description: as §2, §3

[11] = test system: photosynthetic electron transport (PET) in spinach chloroplasts; design: method as in earlier work; conditions: standard, read-out: PET inhibition IC50; cited from earlier work
[12] = Lichtheimia corymbifera, 272, 24 h, read-out: MIC AC 24 h
[13] = Lichtheimia corymbifera, 272, 48 h, read-out: MIC AC 48 h
[14] = H6966/08, 24 h, read-out: MIC SE 24 h
[15] = H6966/08, 48 h, read-out: MIC SE 48 h

Row | Structure (SMILES) | MIC (Absidia corymbifera 272; [12]) [µM] | MIC (Absidia corymbifera 272; [13]) [µM] | MIC ([1]; 72 h, read-out: MIC TM 72 h) [µM] | MIC ([1]; 120 h, read-out: MIC TM 120 h) [µM] | MIC [2, 14] [µM] | MIC [2, 15] [µM] | MR (bulk parameter, reflecting bulkiness) [3] | σ (Hammett's parameter) [3] | IC50 [4] [nM] | restoration of PET through PS 1 after addition of DCPIPH2 ([5]; DCPIPH2 40 μmol/L added to treated chloroplasts) | restoration of PET through PS 2 after addition of DPC ([5]; DPC 2 mmol/L added to treated chloroplasts) | MIC ([6]; 24 h, read-out: MIC MRSA 24 h) [µM] | MIC ([6]; 48 h, read-out: MIC MRSA 48 h) [µM] | log k [7] | intensity of the EPR signal (signal I) in irradiated chloroplasts [8] | MIC/IC90 MK (M. kansasii CIT11/06) [µg/mL] | MIC/IC90 MAP [9] [µg/mL] | MIC/IC90 MAC [10] [µg/mL] | IC50 [11]
1 | COc1ccccc1NC(=O)c1ccccc1O [Compound 3, 2-Hydroxy-N-(2-methoxyphenyl)benzamide] | 125 (≈ 30.4 µg/mL) | 125 (≈ 30.4 µg/mL) | 125 (≈ 30.4 µg/mL) | 125 (≈ 30.4 µg/mL) | > 500 | > 500 | 6.5 | 0.00 | 1600 | completely restored | not restored | 500 (≈ 122 µg/mL) | > 500 | 0.6770 | marked increase |  |  |  | 
2 | Cc1ccccc1NC(=O)c1ccccc1O [Compound 1, 2-Hydroxy-N-(2-methylphenyl)benzamide] | 62.5 (≈ 14.2 µg/mL) | 250 (≈ 56.8 µg/mL) | 62.5 (≈ 14.2 µg/mL) | 125 (≈ 28.4 µg/mL) | 125 (≈ 28.4 µg/mL) | 250 (≈ 56.8 µg/mL) | 4.7 | 0.10 | 2700 |  |  | 125 (≈ 28.4 µg/mL) | 250 (≈ 56.8 µg/mL) | 0.6661 |  | 125 (≈ 550 µM) | 250 (≈ 1100 µM) | 250 (≈ 1100 µM) | 
3 | CN(C)C(=O)Nc1ccc(Cl)c(Cl)c1 [DCMU, 3-(3,4-dichlorophenyl)-1,1-dimethylurea] |  |  |  |  |  |  |  |  |  |  |  |  |  |  |  |  |  |  | ~1900 nM and 1900 nM
